Each structure is given as a SMILES string. Bounds are passed on as bounds.

The target in the first assay is T1, human GlyT1c transporter (Homo sapiens, UniProt P48067).
T1 construct: expressed in transfected cells; host or cells: CHO cells (recombinant; line hGlyT1c_5_CHO is named for the uptake assay)
T1 sequence (P48067 1-706): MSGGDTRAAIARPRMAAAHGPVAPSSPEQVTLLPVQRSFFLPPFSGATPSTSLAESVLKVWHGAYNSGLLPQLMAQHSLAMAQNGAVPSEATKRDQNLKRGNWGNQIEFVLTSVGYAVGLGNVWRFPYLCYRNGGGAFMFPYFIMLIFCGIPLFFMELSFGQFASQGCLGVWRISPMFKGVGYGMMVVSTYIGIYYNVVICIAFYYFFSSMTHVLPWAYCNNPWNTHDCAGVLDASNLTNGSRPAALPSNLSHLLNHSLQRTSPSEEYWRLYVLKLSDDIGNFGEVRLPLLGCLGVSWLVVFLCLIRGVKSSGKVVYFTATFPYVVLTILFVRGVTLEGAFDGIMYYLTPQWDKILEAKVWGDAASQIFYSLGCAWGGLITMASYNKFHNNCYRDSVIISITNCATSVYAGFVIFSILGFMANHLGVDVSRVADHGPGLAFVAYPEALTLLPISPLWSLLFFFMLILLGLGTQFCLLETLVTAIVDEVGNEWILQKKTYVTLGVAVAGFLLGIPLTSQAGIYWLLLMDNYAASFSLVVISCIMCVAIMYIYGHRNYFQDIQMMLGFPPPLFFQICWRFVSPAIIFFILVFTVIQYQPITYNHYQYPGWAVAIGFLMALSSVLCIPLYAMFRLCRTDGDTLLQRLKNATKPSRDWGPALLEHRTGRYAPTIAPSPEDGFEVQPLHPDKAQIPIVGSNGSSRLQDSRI
As to the kind of experiment: Radioligand binding assay using recombinant CHO cell membranes expressing human GlyT1. The note with it: radioligand binding to human GlyT1c transporter-expressing membranes. The text has this: 2. Radioligand binding assays using recombinant CHO cell membranes expressing human GlyT1: […]
Broadly, the Ki is a dissociation constant, usually derived from enzyme kinetics or from competition with a known ligand. In the case of `O=S(=O)(N1CCCC1)N1CC(Nc2ccc(F)c(F)c2)C(c2ccccc2)C1` (stereo not drawn) [Example 485, N-(3,4-difluorophenyl)-4-phenyl-1-(pyrrolidin-1-ylsulfonyl)pyrrolidin-3-amine], the Ki was ≤ 10 µM. On to `CCCC(F)(F)C(=O)N[C@H]1CN(S(=O)(=O)c2cn(C)cn2)C[C@@H]1c1ccc(F)cc1` [Example 700, 2,2-difluoro-N-{(3R,4S)-4-(4-fluorophenyl)-1-[(1-methyl-1H-imidazol-4-yl)sulfonyl]pyrrolidin-3-yl}pentanamide], for which the inhibition constant (Ki) was ≤ 10 µM. `Cn1cnc(S(=O)(=O)N2CC(Nc3cccc(OC(F)(F)F)c3)C(C3CCN(C4CC4)CC3)C2)c1` (stereo not drawn) [Example 678, -4-(1-cyclopropylpiperidin-4-yl)-1-[(1-methyl-1H-imidazol-4-yl)sulfonyl]-N-[3-(trifluoromethoxy)phenyl]pyrrolidin-3-amine]: the Ki was ≤ 1 µM.

For the molecule `COc1ccc(N[C@@H]2CN(S(=O)(=O)c3cn(C)cn3)C[C@H]2c2ccccc2)cc1` (relative stereo) [Example 50, trans-N-(4-methoxyphenyl)-1-[(1-methyl-1H-imidazol-4-yl)sulfonyl]-4-phenylpyrrolidin-3-amine], the Ki is ≤ 10 µM.

Turning to `Cn1cnc(S(=O)(=O)N2C[C@@H](CNc3ccc(F)c(Cl)c3)[C@H](c3ccc(F)cc3)C2)c1` (relative stereo) [Example 314, 3-chloro-4-fluoro-N-({trans-4-(4-fluorophenyl)-1-[(1-methyl-1H-imidazol-4-yl)sulfonyl]pyrrolidin-3-yl}methyl)aniline], the Ki is ≤ 1 µM. Consider `CCCCCCNC(=O)[C@@H]1CN(S(=O)(=O)c2cn(C)cn2)C[C@H]1c1ccc(F)cc1` (relative stereo) [Example 627, Trans-4-(4-fluorophenyl)-N-hexyl-1-[(1-methyl-1H-imidazol-4-yl)sulfonyl]pyrrolidine-3-carboxamide], for which the Ki is ≤ 1 µM. The same measure, in the same setting: in the case of `Cc1ccc(-c2ncc(CN[C@H]3CN(S(=O)(=O)c4cn(C)cn4)C[C@@H]3c3ccccc3)s2)cc1` [Example 572, (3R,4S)-1-[(1-methyl-1H-imidazol-4-yl)sulfonyl]-N-{[2-(4-methylphenyl)-1,3-thiazol-5-yl]methyl}-4-phenylpyrrolidin-3-amine] it was ≤ 1 µM; in that of `Cn1ccc2cc(S(=O)(=O)N3CC(Nc4ccc(F)c(F)c4)C(c4ccccc4)C3)ccc21` (stereo not drawn) [Example 503, N-(3,4-difluorophenyl)-1-[(1-methyl-1H-indol-5-yl)sulfonyl]-4-phenylpyrrolidin-3-amine], ≥ 10 µM; in that of `Cn1cnc(S(=O)(=O)N2C[C@@H]([C@@H]3CCCOC3)[C@H](Nc3ccc(Cl)c(C(F)(F)F)c3)C2)c1` (relative stereo) [Example 792, Trans-N-[4-chloro-3-(trifluoromethyl)phenyl]-1-[(1-methyl-1H-imidazol-4-yl)sulfonyl]-4-[(3S)-tetrahydro-2H-pyran-3-yl]pyrrolidin-3-amine], ≤ 10 µM. The same measure, in the same setting: in the case of `CCOCCNC[C@@H]1CN(S(=O)(=O)c2cn(C)cn2)C[C@H]1c1ccc(F)cc1` (relative stereo) [Example 598, 2-ethoxy-N-({trans-4-(4-fluorophenyl)-1-[(1-methyl-1H-imidazol-4-yl)sulfonyl]pyrrolidin-3-yl}methyl)ethanamine] it was ≤ 10 µM.

Still in this assay, the particulars now being: radioligand binding, recombinant CHO cell membranes expressing human GlyT1c.
With `Cn1cnc(S(=O)(=O)N2CC(Cc3cc(C(F)(F)F)ccn3)C(c3ccccc3)C2)c1` (stereo not drawn) [Example 817, 2-({1-[(1-methyl-1H-imidazol-4-yl)sulfonyl]-4-phenylpyrrolidin-3-yl}methyl)-4-(trifluoromethyl)pyridine], the Ki is ≤ 1 µM. On the same count and under the same terms, in the case of `Cn1cnc(S(=O)(=O)N2C[C@@H](Nc3cccc(Cl)c3)[C@H](C3CCCO3)C2)c1` (relative stereo) [Example 850, Trans-N-(3-chlorophenyl)-1 - [(1-methyl-1H-imidazol-4-yl)sulfonyl] -4-(tetrahydrofuran-2-yl)pyrrolidin-3-amine] it was ≤ 1 µM.

For the origin of these results see patent EP2970215B1, “PYRROLIDINE DERIVATIVES, PHARMACEUTICAL COMPOSITIONS CONTAINING THEM, AND THEIR USE IN THERAPY” (AbbVie Deutschland GmbH & Co. KG, priority 2013, dated 2014).
